Test: xn = mol fraction of the nth substance listed
Settings: Liquid, Vibrating tube method

COc1cc2c(cc1O)CC1c3c(cc(O)c(OC)c3-2)CCN1C (stereo not given) [boldine] + CCO
Settings	mass density [kg/m3]
323.04 K, 16000 kPa, x1 = 0.0074	793.69
323.04 K, 16000 kPa, x1 = 0.0196	821.98
323.04 K, 17000 kPa, x1 = 0.0074	794.55
323.04 K, 17000 kPa, x1 = 0.0196	822.81
323.04 K, 18000 kPa, x1 = 0.0074	795.4
323.04 K, 18000 kPa, x1 = 0.0196	823.62
323.04 K, 19000 kPa, x1 = 0.0074	796.23
323.04 K, 19000 kPa, x1 = 0.0196	824.42
323.04 K, 20000 kPa, x1 = 0.0074	797.04
323.04 K, 20000 kPa, x1 = 0.0196	825.2
323.05 K, 1000 kPa, x1 = 0.0267	820.88
323.05 K, 2000 kPa, x1 = 0.0267	821.74
323.05 K, 3000 kPa, x1 = 0.0267	822.62
323.05 K, 4000 kPa, x1 = 0.0267	823.5
323.05 K, 5000 kPa, x1 = 0.0267	824.37
323.05 K, 6000 kPa, x1 = 0.0267	825.26
323.05 K, 7000 kPa, x1 = 0.0267	826.15
323.05 K, 8000 kPa, x1 = 0.0267	827.02
323.05 K, 9000 kPa, x1 = 0.0267	827.89
323.05 K, 10000 kPa, x1 = 0.0267	828.78
323.05 K, 11000 kPa, x1 = 0.0267	829.64
323.05 K, 12000 kPa, x1 = 0.0267	830.5
323.05 K, 13000 kPa, x1 = 0.0267	831.36
323.05 K, 14000 kPa, x1 = 0.0267	832.21
323.05 K, 15000 kPa, x1 = 0.0267	833.04
323.05 K, 16000 kPa, x1 = 0.0267	833.87
323.05 K, 17000 kPa, x1 = 0.0267	834.68
323.05 K, 18000 kPa, x1 = 0.0267	835.48
323.05 K, 19000 kPa, x1 = 0.0267	836.27
323.05 K, 20000 kPa, x1 = 0.0267	837.04
323.11 K, 1000 kPa, x1 = 0.0136	793.39
323.11 K, 2000 kPa, x1 = 0.0136	794.29
323.11 K, 3000 kPa, x1 = 0.0136	795.2
323.11 K, 4000 kPa, x1 = 0.0136	796.12
323.11 K, 5000 kPa, x1 = 0.0136	797.04
323.11 K, 6000 kPa, x1 = 0.0136	797.96
323.11 K, 7000 kPa, x1 = 0.0136	798.88
323.11 K, 8000 kPa, x1 = 0.0136	799.8
323.11 K, 9000 kPa, x1 = 0.0136	800.72
323.11 K, 10000 kPa, x1 = 0.0136	801.63
323.11 K, 11000 kPa, x1 = 0.0136	802.53
323.11 K, 12000 kPa, x1 = 0.0136	803.44
323.11 K, 13000 kPa, x1 = 0.0136	804.33
323.11 K, 14000 kPa, x1 = 0.0136	805.21
323.11 K, 15000 kPa, x1 = 0.0136	806.08
323.11 K, 16000 kPa, x1 = 0.0136	806.95
323.11 K, 17000 kPa, x1 = 0.0136	807.79
323.11 K, 18000 kPa, x1 = 0.0136	808.63
323.11 K, 19000 kPa, x1 = 0.0136	809.44
323.11 K, 20000 kPa, x1 = 0.0136	810.25
332.92 K, 1000 kPa, x1 = 0.0012	757.69
332.92 K, 2000 kPa, x1 = 0.0012	758.72
332.92 K, 3000 kPa, x1 = 0.0012	759.75
332.92 K, 4000 kPa, x1 = 0.0012	760.77
332.92 K, 5000 kPa, x1 = 0.0012	761.81
332.92 K, 6000 kPa, x1 = 0.0012	762.85
332.92 K, 7000 kPa, x1 = 0.0012	763.86
332.92 K, 8000 kPa, x1 = 0.0012	764.88
332.92 K, 9000 kPa, x1 = 0.0012	765.9
332.92 K, 10000 kPa, x1 = 0.0012	766.9
332.92 K, 11000 kPa, x1 = 0.0012	767.9
332.92 K, 12000 kPa, x1 = 0.0012	768.88
332.92 K, 13000 kPa, x1 = 0.0012	769.87
332.92 K, 14000 kPa, x1 = 0.0012	770.83
332.92 K, 15000 kPa, x1 = 0.0012	771.78
332.92 K, 16000 kPa, x1 = 0.0012	772.72
332.92 K, 17000 kPa, x1 = 0.0012	773.63
332.92 K, 18000 kPa, x1 = 0.0012	774.53
332.92 K, 19000 kPa, x1 = 0.0012	775.42
332.92 K, 20000 kPa, x1 = 0.0012	776.29
332.93 K, 1000 kPa, x1 = 0.0074	770.77
332.93 K, 2000 kPa, x1 = 0.0074	771.77
332.93 K, 3000 kPa, x1 = 0.0074	772.79
332.93 K, 4000 kPa, x1 = 0.0074	773.79
332.93 K, 5000 kPa, x1 = 0.0074	774.8
332.93 K, 6000 kPa, x1 = 0.0074	775.81
332.93 K, 7000 kPa, x1 = 0.0074	776.8
332.93 K, 8000 kPa, x1 = 0.0074	777.8
332.93 K, 9000 kPa, x1 = 0.0074	778.8
332.93 K, 10000 kPa, x1 = 0.0074	779.77
332.93 K, 11000 kPa, x1 = 0.0074	780.75
332.93 K, 12000 kPa, x1 = 0.0074	781.71
332.93 K, 13000 kPa, x1 = 0.0074	782.66
332.93 K, 14000 kPa, x1 = 0.0074	783.61
332.93 K, 15000 kPa, x1 = 0.0074	784.53
332.93 K, 16000 kPa, x1 = 0.0074	785.45
332.93 K, 17000 kPa, x1 = 0.0074	786.34
332.93 K, 18000 kPa, x1 = 0.0074	787.23
332.93 K, 19000 kPa, x1 = 0.0074	788.09
332.93 K, 20000 kPa, x1 = 0.0074	788.95
332.95 K, 1000 kPa, x1 = 0.0196	799.67
332.95 K, 2000 kPa, x1 = 0.0196	800.63
332.95 K, 3000 kPa, x1 = 0.0196	801.6
332.95 K, 4000 kPa, x1 = 0.0196	802.56
332.95 K, 5000 kPa, x1 = 0.0196	803.52
332.95 K, 6000 kPa, x1 = 0.0196	804.48
332.95 K, 7000 kPa, x1 = 0.0196	805.45
332.95 K, 8000 kPa, x1 = 0.0196	806.4
332.95 K, 9000 kPa, x1 = 0.0196	807.35
332.95 K, 10000 kPa, x1 = 0.0196	808.29
332.95 K, 11000 kPa, x1 = 0.0196	809.23
332.95 K, 12000 kPa, x1 = 0.0196	810.15
332.95 K, 13000 kPa, x1 = 0.0196	811.07
332.95 K, 14000 kPa, x1 = 0.0196	811.98
332.95 K, 15000 kPa, x1 = 0.0196	812.86
332.95 K, 16000 kPa, x1 = 0.0196	813.75
332.95 K, 17000 kPa, x1 = 0.0196	814.61
332.95 K, 18000 kPa, x1 = 0.0196	815.46
332.95 K, 19000 kPa, x1 = 0.0196	816.3
332.95 K, 20000 kPa, x1 = 0.0196	817.11
333 K, 1000 kPa, x1 = 0.0267	811.86
333 K, 2000 kPa, x1 = 0.0267	812.8
333 K, 3000 kPa, x1 = 0.0267	813.76
333 K, 4000 kPa, x1 = 0.0267	814.69
333 K, 5000 kPa, x1 = 0.0267	815.65
333 K, 6000 kPa, x1 = 0.0267	816.59
333 K, 7000 kPa, x1 = 0.0267	817.53
333 K, 8000 kPa, x1 = 0.0267	818.45
333 K, 9000 kPa, x1 = 0.0267	819.38
333 K, 10000 kPa, x1 = 0.0267	820.29
333 K, 11000 kPa, x1 = 0.0267	821.22
333 K, 12000 kPa, x1 = 0.0267	822.11
333 K, 13000 kPa, x1 = 0.0267	823.01
333 K, 14000 kPa, x1 = 0.0267	823.9
333 K, 15000 kPa, x1 = 0.0267	824.77
333 K, 16000 kPa, x1 = 0.0267	825.63
333 K, 17000 kPa, x1 = 0.0267	826.48
333 K, 18000 kPa, x1 = 0.0267	827.32
333 K, 19000 kPa, x1 = 0.0267	828.13
333 K, 20000 kPa, x1 = 0.0267	828.94
333.04 K, 1000 kPa, x1 = 0.0136	784.43
333.04 K, 2000 kPa, x1 = 0.0136	785.41
333.04 K, 3000 kPa, x1 = 0.0136	786.41
333.04 K, 4000 kPa, x1 = 0.0136	787.39
333.04 K, 5000 kPa, x1 = 0.0136	788.38
333.04 K, 6000 kPa, x1 = 0.0136	789.37
333.04 K, 7000 kPa, x1 = 0.0136	790.36
333.04 K, 8000 kPa, x1 = 0.0136	791.33
333.04 K, 9000 kPa, x1 = 0.0136	792.31
333.04 K, 10000 kPa, x1 = 0.0136	793.27
333.04 K, 11000 kPa, x1 = 0.0136	794.24
333.04 K, 12000 kPa, x1 = 0.0136	795.2
333.04 K, 13000 kPa, x1 = 0.0136	796.14
333.04 K, 14000 kPa, x1 = 0.0136	797.07
333.04 K, 15000 kPa, x1 = 0.0136	797.98
333.04 K, 16000 kPa, x1 = 0.0136	798.89
333.04 K, 17000 kPa, x1 = 0.0136	799.78
333.04 K, 18000 kPa, x1 = 0.0136	800.65
333.04 K, 19000 kPa, x1 = 0.0136	801.51
333.04 K, 20000 kPa, x1 = 0.0136	802.34

From the NIST ThermoML archive (doi:10.1016/j.jct.2012.03.003)
